Reference: the NIST ThermoML archive (doi:10.1021/je900194v)

What was measured:
[1] = 101 kPa, Liquid; for viscosity: Capillary tube (Ostwald / Ubbelohde) method; for mass density: Vibrating tube method
[2] = xn = mol fraction of the nth substance listed; conditions: 101 kPa, Liquid; for viscosity: Capillary tube (Ostwald / Ubbelohde) method; for mass density: Vibrating tube method

Cc1ccccc1C [1,2-dimethylbenzene]
[1]
Conditions | mass density [kg/m3] | viscosity [mPa·s]
298.15 K | 875.08 | 0.758
308.15 K | 866.62 | 0.665
318.15 K | 858.12 | 0.589

Cc1ccccc1C [1,2-dimethylbenzene] + COC(=O)CCCCl
[2], x2 = 0
Conditions | mass density [kg/m3] | viscosity [mPa·s]
298.15 K | 875.08 | 0.758
308.15 K | 866.62 | 0.665
318.15 K | 858.12 | 0.589

Cc1cccc(C)c1 [1,3-dimethylbenzene] + COC(=O)CCCCl
[2], x2 = 0
Conditions | mass density [kg/m3] | viscosity [mPa·s]
298.15 K | 859.83 | 0.587
308.15 K | 851.19 | 0.524
318.15 K | 842.49 | 0.471

Cc1ccc(C)cc1 [1,4-dimethylbenzene] + COC(=O)CCCCl
[2], x2 = 0
Conditions | mass density [kg/m3] | viscosity [mPa·s]
298.15 K | 856.68 | 0.609
308.15 K | 847.96 | 0.541
318.15 K | 839.2 | 0.484

c1ccccc1 [benzene] + COC(=O)CCCCl
[2], x2 = 0
Conditions | mass density [kg/m3] | viscosity [mPa·s]
298.15 K | 873.61 | 0.603
308.15 K | 862.28 | 0.533
318.15 K | 852.08 | 0.466

COC(=O)CCCCl [methyl 4-chlorobutanoate] + Cc1ccc(C)cc1
[2]
Conditions | mass density, 298.15 K [kg/m3] | mass density, 308.15 K [kg/m3] | mass density, 318.15 K [kg/m3] | viscosity, 298.15 K [mPa·s] | viscosity, 308.15 K [mPa·s] | viscosity, 318.15 K [mPa·s]
x1 = 0.0999 | 882.47 | 873.48 | 864.45 | 0.662 | 0.586 | 0.522
x1 = 0.2001 | 908.43 | 899.17 | 889.87 | 0.714 | 0.629 | 0.561
x1 = 0.3 | 934.33 | 924.84 | 915.3 | 0.775 | 0.679 | 0.6
x1 = 0.4001 | 960.27 | 950.54 | 940.77 | 0.847 | 0.738 | 0.651
x1 = 0.4999 | 986.16 | 976.2 | 966.2 | 0.927 | 0.806 | 0.705
x1 = 0.6 | 1012.09 | 1001.91 | 991.69 | 1.023 | 0.886 | 0.772
x1 = 0.7 | 1038.03 | 1027.62 | 1017.19 | 1.133 | 0.978 | 0.846
x1 = 0.8 | 1063.99 | 1053.37 | 1042.71 | 1.255 | 1.077 | 0.926
x1 = 0.9 | 1090.06 | 1079.25 | 1068.37 | 1.385 | 1.179 | 1.008
x1 = 1 | 1116.24 | 1105.23 | 1094.13 | 1.519 | 1.279 | 1.089

COC(=O)CCCCl [methyl 4-chlorobutanoate] + Cc1cccc(C)c1
[2]
Conditions | mass density, 298.15 K [kg/m3] | mass density, 308.15 K [kg/m3] | mass density, 318.15 K [kg/m3] | viscosity, 298.15 K [mPa·s] | viscosity, 308.15 K [mPa·s] | viscosity, 318.15 K [mPa·s]
x1 = 0.0999 | 885.23 | 876.33 | 867.38 | 0.639 | 0.571 | 0.512
x1 = 0.1999 | 910.66 | 901.49 | 892.27 | 0.7 | 0.624 | 0.55
x1 = 0.2999 | 936.14 | 926.72 | 917.26 | 0.769 | 0.674 | 0.596
x1 = 0.399 | 961.41 | 951.74 | 942.03 | 0.843 | 0.737 | 0.649
x1 = 0.4999 | 987.21 | 977.32 | 967.37 | 0.928 | 0.807 | 0.706
x1 = 0.5995 | 1012.73 | 1002.6 | 992.39 | 1.022 | 0.882 | 0.77
x1 = 0.6996 | 1038.43 | 1028.06 | 1017.63 | 1.128 | 0.966 | 0.839
x1 = 0.7992 | 1064.11 | 1053.51 | 1042.83 | 1.238 | 1.062 | 0.92
x1 = 0.8999 | 1090.15 | 1079.3 | 1068.38 | 1.368 | 1.163 | 1.004
x1 = 1 | 1116.24 | 1105.22 | 1094.13 | 1.519 | 1.279 | 1.089

COC(=O)CCCCl [methyl 4-chlorobutanoate] + Cc1ccccc1
[2]
Conditions | mass density, 298.15 K [kg/m3] | mass density, 308.15 K [kg/m3] | mass density, 318.15 K [kg/m3] | viscosity, 298.15 K [mPa·s] | viscosity, 308.15 K [mPa·s] | viscosity, 318.15 K [mPa·s]
x1 = 0.1 | 891.28 | 881.71 | 872.09 | 0.614 | 0.551 | 0.486
x1 = 0.2 | 919.47 | 909.69 | 899.87 | 0.68 | 0.599 | 0.53
x1 = 0.3 | 946.73 | 936.79 | 926.77 | 0.753 | 0.662 | 0.582
x1 = 0.4001 | 973.21 | 963.07 | 952.89 | 0.829 | 0.731 | 0.635
x1 = 0.5 | 998.81 | 988.49 | 978.14 | 0.919 | 0.796 | 0.7
x1 = 0.6 | 1023.69 | 1013.23 | 1002.74 | 1.021 | 0.883 | 0.767
x1 = 0.7 | 1047.84 | 1037.22 | 1026.57 | 1.123 | 0.962 | 0.831
x1 = 0.8 | 1071.31 | 1060.54 | 1049.74 | 1.246 | 1.062 | 0.913
x1 = 0.8998 | 1094.05 | 1083.16 | 1072.21 | 1.38 | 1.17 | 1.001
x1 = 1 | 1116.24 | 1105.22 | 1094.13 | 1.519 | 1.279 | 1.089

COC(=O)CCCCl [methyl 4-chlorobutanoate] + Cc1ccccc1C
[2]
Conditions | mass density, 298.15 K [kg/m3] | mass density, 308.15 K [kg/m3] | mass density, 318.15 K [kg/m3] | viscosity, 298.15 K [mPa·s] | viscosity, 308.15 K [mPa·s] | viscosity, 318.15 K [mPa·s]
x1 = 0.1 | 899.36 | 890.63 | 881.84 | 0.814 | 0.71 | 0.627
x1 = 0.2001 | 923.55 | 914.54 | 905.46 | 0.872 | 0.757 | 0.688
x1 = 0.3 | 947.67 | 938.39 | 929.03 | 0.935 | 0.808 | 0.707
x1 = 0.3998 | 971.75 | 962.19 | 952.59 | 1.001 | 0.863 | 0.752
x1 = 0.4992 | 995.83 | 985.99 | 976.14 | 1.074 | 0.92 | 0.8
x1 = 0.6 | 1020.27 | 1010.17 | 1000.07 | 1.153 | 0.983 | 0.855
x1 = 0.7 | 1044.53 | 1034.19 | 1023.83 | 1.235 | 1.05 | 0.907
x1 = 0.8 | 1068.71 | 1058.13 | 1047.53 | 1.322 | 1.12 | 0.965
x1 = 0.9 | 1092.68 | 1081.88 | 1071.02 | 1.415 | 1.194 | 1.025
x1 = 1 | 1116.24 | 1105.22 | 1094.13 | 1.519 | 1.279 | 1.089

COC(=O)CCCCl [methyl 4-chlorobutanoate] + c1ccccc1
[2]
Conditions | mass density, 298.15 K [kg/m3] | mass density, 308.15 K [kg/m3] | mass density, 318.15 K [kg/m3] | viscosity, 298.15 K [mPa·s] | viscosity, 308.15 K [mPa·s] | viscosity, 318.15 K [mPa·s]
x1 = 0.1 | 905.57 | 894.74 | 883.87 | 0.669 | 0.579 | 0.507
x1 = 0.2001 | 935.29 | 924.42 | 913.49 | 0.731 | 0.634 | 0.553
x1 = 0.3 | 962.99 | 952.12 | 941.13 | 0.799 | 0.69 | 0.601
x1 = 0.4001 | 989.08 | 978.2 | 967.18 | 0.875 | 0.754 | 0.661
x1 = 0.5 | 1013.66 | 1002.77 | 991.75 | 0.96 | 0.828 | 0.719
x1 = 0.5999 | 1036.89 | 1026.01 | 1014.99 | 1.054 | 0.907 | 0.785
x1 = 0.7 | 1058.82 | 1047.97 | 1036.94 | 1.157 | 0.99 | 0.853
x1 = 0.8 | 1079.42 | 1068.49 | 1057.55 | 1.271 | 1.08 | 0.927
x1 = 0.9 | 1098.6 | 1087.62 | 1076.65 | 1.391 | 1.18 | 1.007
x1 = 1 | 1116.24 | 1105.22 | 1094.13 | 1.519 | 1.279 | 1.089

Cc1ccccc1 [toluene] + COC(=O)CCCCl
[2], x2 = 0
Conditions | mass density [kg/m3] | viscosity [mPa·s]
298.15 K | 862.18 | 0.561
308.15 K | 852.81 | 0.499
318.15 K | 843.4 | 0.446
